Converted amounts (≈) assume the structure as drawn. The source made the active and inactive calls. The calls are words filed in the database; no cut-off is given here.
Legend:
Staphylococcus aureus [1] = assay: Antibacterial activity against methicillin-resistant Staphylococcus aureus ATCC 33591 assessed as bacterial growth inhibition measured after 20 hrs by broth dilution method; type: functional
Staphylococcus aureus [2] = assay: Bactericidal activity against methicillin-resistant Staphylococcus aureus ATCC 33591 at 4 to 8 times MIC measured within 24 hrs by time kill assay; type: functional, organism-based
Staphylococcus aureus [3] = assay: Ratio of MBC to MIC against methicillin-resistant Staphylococcus aureus clinical isolate 202311772; type: functional
Staphylococcus aureus [4] = assay: Antibacterial activity against Staphylococcus aureus ATCC 25923 assessed as reduction in GFP expression at 1 to 4 times MIC measured after 1 hr by fluorescence microscopy based analysis; type: functional, organism-based
Streptococcus pneumoniae [5] = assay: Antibacterial activity against penicillin-intermediate Streptococcus pneumoniae ATCC 49619 assessed as bacterial growth inhibition measured after 20 hrs by broth dilution method; type: functional
Enterococcus faecium [6] = assay: Antibacterial activity against vancomycin-resistant Enterococcus faecium clinical isolate 202308456 assessed as bacterial growth inhibition measured after 20 hrs by broth dilution method; type: functional
Staphylococcus aureus [7] = assay: Antibacterial activity against methicillin-resistant Staphylococcus aureus clinical isolate 202311772 assessed as bacterial growth inhibition measured after 20 hrs by broth dilution method; type: functional
Staphylococcus aureus [8] = assay: Antibacterial activity against methicillin-resistant Staphylococcus aureus ATCC 43300 assessed as bacterial growth inhibition measured after 20 hrs by broth dilution method; type: functional
Enterococcus faecium [9] = assay: Antibacterial activity against vancomycin-resistant Enterococcus faecium ATCC 700221 assessed as bacterial growth inhibition measured after 20 hrs by broth dilution method; type: functional
Staphylococcus aureus [10] = assay: Induction of morphological changes in methicillin-resistant Staphylococcus aureus ATCC 33591 assessed as changes in cell surface at 1 time MIC measured after 4 hrs by SEM analysis; type: functional, organism-based
Staphylococcus aureus [11] = assay: Antibacterial activity against methicillin-resistant Staphylococcus aureus ATCC 33591 infected in female C57 mouse systemic infection model assessed as reduction in bacterial load in liver at 40 mg/kg, iv administered twice daily and measured after 7 days; type: functional; conditions: time 7 day
Enterococcus faecium [12] = assay: Antibacterial activity against vancomycin-resistant Enterococcus faecium ATCC 51559 assessed as bacterial growth inhibition measured after 20 hrs by broth dilution method; type: functional
[13] = test system: Staphylococcus epidermidis; assay: Antibacterial activity against methicillin-resistant Staphylococcus epidermidis clinical isolate 202409454 assessed as bacterial growth inhibition measured after 20 hrs by broth dilution method; type: functional
Staphylococcus aureus [14] = assay: Antibacterial activity against methicillin-resistant Staphylococcus aureus ATCC 33591 infected in female C57 mouse systemic infection model assessed as reduction in bacterial load in kidney at 40 mg/kg, iv administered twice daily and measured after 7 days; type: functional; conditions: time 7 day
[15] = test system: Staphylococcus epidermidis; assay: Ratio of MBC to MIC against Staphylococcus epidermidis ATCC 51625; type: functional
Staphylococcus aureus [16] = assay: Antibacterial activity against methicillin-resistant Staphylococcus aureus ATCC 33591 infected in female C57 mouse systemic infection model assessed as reduction in bacterial load in heart at 40 mg/kg, iv administered twice daily and measured after 7 days; type: functional; conditions: time 7 day
Streptococcus pneumoniae [17] = assay: Antibacterial activity against penicillin-resistant Streptococcus pneumoniae ATCC 51916 assessed as bacterial growth inhibition measured after 20 hrs by broth dilution method; type: functional
Streptococcus pneumoniae [18] = assay: Ratio of MBC to MIC against penicillin-intermediate Streptococcus pneumoniae ATCC 49619; type: functional
Staphylococcus aureus [19] = assay: Antibacterial activity against methicillin-resistant Staphylococcus aureus ATCC 33591 infected in female C57 mouse systemic infection model assessed as reduction in bacterial load in lung at 40 mg/kg, iv administered twice daily and measured after 7 days; type: functional; conditions: time 7 day
Staphylococcus aureus [20] = assay: Antibacterial activity against methicillin-resistant Staphylococcus aureus clinical isolate 202313160 assessed as bacterial growth inhibition measured after 20 hrs by broth dilution method; type: functional
Staphylococcus aureus [21] = assay: Ratio of MBC to MIC against Staphylococcus aureus ATCC 43300; type: functional
[22] = test system: Staphylococcus epidermidis; assay: Antibacterial activity against methicillin-resistant Staphylococcus epidermidis clinical isolate 202409139 assessed as bacterial growth inhibition measured after 20 hrs by broth dilution method; type: functional
[23] = test system: Staphylococcus epidermidis; assay: Antibacterial activity against Staphylococcus epidermidis ATCC 51625 assessed as bacterial growth inhibition measured after 20 hrs by broth dilution method; type: functional
Staphylococcus aureus [24] = assay: Drug resistance, ratio of MIC for Staphylococcus aureus ATCC 33591 after 8 days to MIC for methicillin-resistant Staphylococcus aureus ATCC 33591 after initial exposure; type: functional; conditions: time 8 day
Staphylococcus aureus [25] = assay: Ratio of MBC to MIC against methicillin-resistant Staphylococcus aureus ATCC 33591; type: functional
Staphylococcus aureus [26] = assay: Antibacterial activity against methicillin resistant Staphylococcus aureus ATCC 33591 assessed as post antibiotic effect at 2 times MIC by time kill assay; type: functional
Staphylococcus aureus [27] = assay: Antibacterial activity against methicillin-resistant Staphylococcus aureus ATCC 33591 infected in female C57 mouse systemic infection model assessed as reduction in bacterial load in spleen at 40 mg/kg, iv administered twice daily and measured after 7 days; type: functional; conditions: time 7 day
Staphylococcus aureus [28] = assay: Antibacterial activity against methicillin resistant Staphylococcus aureus ATCC 33591 assessed as post antibiotic effect at 4 times MIC by time kill assay; type: functional
Enterococcus faecium [29] = assay: Ratio of MBC to MIC against vancomycin-resistant Enterococcus faecium ATCC 51559; type: functional
Enterococcus faecium [30] = assay: Ratio of MBC to MIC against vancomycin-resistant Enterococcus faecium ATCC 700221; type: functional
Staphylococcus aureus [31] = assay: Antibacterial activity against methicillin-resistant Staphylococcus aureus ATCC 33591 infected in female C57 mouse systemic infection model assessed as effective dose; type: functional
Staphylococcus aureus [32] = assay: Drug resistance, ratio of MIC for Staphylococcus aureus ATCC 33591 after 9 days to MIC for methicillin-resistant Staphylococcus aureus ATCC 33591 after initial exposure; type: functional; conditions: time 9 day
Staphylococcus aureus [33] = assay: Antibacterial activity against methicillin-resistant Staphylococcus aureus clinical isolate 202405157 assessed as bacterial growth inhibition measured after 20 hrs by broth dilution method; type: functional
Staphylococcus aureus [34] = assay: Ratio of MBC to MIC against methicillin-resistant Staphylococcus aureus clinical isolate 202405157; type: functional
Enterococcus faecium [35] = assay: Ratio of MBC to MIC against vancomycin-resistant Enterococcus faecium clinical isolate 202308456; type: functional

## C=C[C@]1(C)C[C@@H](OC(=O)CSCCN(CC)CC)[C@]2(C)[C@H](C)CC[C@]3(CCC(=O)[C@H]32)[C@@H](C)[C@@H]1O [TIAMULIN]
Staphylococcus aureus [1]
  MIC: 0.5 mg/L (≈ 1.01 µM)
Staphylococcus aureus [2]
  Activity: Active
Staphylococcus aureus [3]
  Ratio: 4
Staphylococcus aureus [4]
  Activity: Active
Streptococcus pneumoniae [5]
  MIC: 0.25 mg/L (≈ 0.506 µM)
Enterococcus faecium [6]
  MIC: 2 mg/L (≈ 4.05 µM)
Staphylococcus aureus [7]
  MIC: 2 mg/L (≈ 4.05 µM)
Staphylococcus aureus [8]
  MIC: 0.5 mg/L (≈ 1.01 µM)
Enterococcus faecium [9]
  MIC: 0.125 mg/L (≈ 0.253 µM)
Staphylococcus aureus [10]
  Activity: inactive
Staphylococcus aureus [11]
  Activity: 0.28 log10CFU/g
Enterococcus faecium [12]
  MIC: 0.5 mg/L (≈ 1.01 µM)
[13]
  MIC: 2 mg/L (≈ 4.05 µM)
Staphylococcus aureus [14]
  Activity: 1.39 log10CFU/g
[15]
  Ratio: >4
Staphylococcus aureus [16]
  Activity: 2.05 log10CFU/g
Streptococcus pneumoniae [17]
  MIC: 0.125 mg/L (≈ 0.253 µM)
Streptococcus pneumoniae [18]
  Ratio: >4
Staphylococcus aureus [19]
  Activity: 1.23 log10CFU/g
Staphylococcus aureus [20]
  MIC: 1 mg/L (≈ 2.03 µM)
Staphylococcus aureus [21]
  Ratio: >4
[22]
  MIC: 1 mg/L (≈ 2.03 µM)
[23]
  MIC: 0.125 mg/L (≈ 0.253 µM)
Staphylococcus aureus [24]
  fold change (FC): 4
Staphylococcus aureus [25]
  Ratio: 4
Staphylococcus aureus [26]
  PAE: 1.07 h
Staphylococcus aureus [27]
  Activity: 0.7 log10CFU/g
Staphylococcus aureus [28]
  PAE: 1.19 h
Enterococcus faecium [29]
  Ratio: 2
Enterococcus faecium [30]
  Ratio: >4
Staphylococcus aureus [31]
  ED50: 28.9 mg/kg
Staphylococcus aureus [32]
  fold change (FC): 64
Staphylococcus aureus [33]
  MIC: 2 mg/L (≈ 4.05 µM)
Staphylococcus aureus [34]
  Ratio: 4
Enterococcus faecium [35]
  Ratio: 4

Reference: ChEMBL document CHEMBL6078666, “Discovery of Novel Coumarin Pleuromutilin Derivatives as Potent Anti-MRSA Agents” (J Med Chem, 2024)
